Source: ChEMBL document CHEMBL1130513, “New hepatoprotective saponins, bupleurosides III, VI, IX, and XIII, from Chinese Bupleuri Radix: Structure-requirements for the cytoprotective activity in primary cultured rat hepatocytes” (1997)

Tests used:
Format in all cases: functional
Conditions in all cases: Hepatocyte
Rattus norvegicus [1] = species on record: Rattus norvegicus; assay: In vitro inhibitory effect on D-Galactosamine induced cytotoxicity in primary cultured rat hepatocytes at 30 ug/mL
Rattus norvegicus [2] = species on record: Rattus norvegicus; assay: In vitro inhibitory effect on D-Galactosamine induced cytotoxicity in primary cultured rat hepatocytes at 3 ug/mL
Rattus norvegicus [3] = species on record: Rattus norvegicus; assay: In vitro inhibitory effect on D-Galactosamine induced cytotoxicity in primary cultured rat hepatocytes at 10 ug/mL
Rattus norvegicus [4] = species on record: Rattus norvegicus; assay: In vitro inhibitory effect on D-Galactosamine induced cytotoxicity in primary cultured rat hepatocytes at 0.3 ug/mL
Rattus norvegicus [5] = species on record: Rattus norvegicus; assay: In vitro inhibitory effect on D-Galactosamine induced cytotoxicity in primary cultured rat hepatocytes at 1 ug/mL

SMILES	inhibition at 30 µg/mL (Rattus norvegicus [1]) [%]	inhibition at 3 µg/mL (Rattus norvegicus [2]) [%]	inhibition at 10 µg/mL (Rattus norvegicus [3]) [%]	inhibition at 0.3 µg/mL (Rattus norvegicus [4]) [%]	inhibition at 1 µg/mL (Rattus norvegicus [5]) [%]
CO[C@@H]1C=C2C3CC(C)(C)CC[C@]3(CO)[C@@H](O)C[C@@]2(C)[C@]2(C)CCC3C(C)(C)C(O[C@@H]4O[C@H](CO[C@@H]5O[C@H](CO)[C@@H](O)[C@H](O)[C@H]5O)[C@H](O[C@@H]5O[C@@H](C)[C@H](O)[C@@H](O)[C@H]5O)[C@H](O)[C@H]4O)CC[C@]3(C)[C@@H]12 (stereo not given in full)	8.1	4.5	11.1	10.3	9.7
CO[C@@H]1C=C2C3CC(C)(C)CC[C@]3(CO)[C@@H](O)C[C@@]2(C)[C@]2(C)CCC3C(C)(C)[C@@H](O[C@@H]4O[C@H](C)[C@H](O)[C@H](O[C@@H]5O[C@H](CO)[C@@H](O)[C@H](O)[C@H]5O)[C@H]4O)CC[C@]3(C)C12 (stereo not given in full)	75	75.5	73.3	37.2	64.9
C[C@H]1O[C@@H](OC2CC[C@@]3(C)C(CC[C@]4(C)C3C=CC3=C5C[C@](C)(C(=O)O)CC[C@]5(CO)[C@H](O)C[C@]34C)[C@]2(C)CO)[C@H](O)[C@@H](O[C@@H]2O[C@H](CO)[C@@H](O)[C@H](O)[C@H]2O)[C@H]1O (stereo not given in full) [BUPLEUROSIDE V]	4.5	1.4	3.8	1.4	1.5
CO[C@@H]1C=C2C3CC(C)(C)CC[C@]3(CO)[C@H](O)C[C@@]2(C)[C@]2(C)CCC3[C@](C)(CC[C@H](O[C@@H]4O[C@H](C)[C@H](O)[C@H](O[C@@H]5O[C@H](CO)[C@@H](O)[C@H](O)[C@H]5O[C@@H]5O[C@H](CO)[C@@H](O)[C@H](O)[C@H]5O)[C@H]4O)[C@@]3(C)CO)C12 (stereo not given in full)	-2.9	-0.4	-2.2	1.7	0.3
C[C@@H]1O[C@@H](O[C@@H]2[C@H](O)[C@@H](O)[C@H](O[C@H]3CC[C@@]4(C)C(CC[C@]5(C)C4C(=O)C=C4C6CC(C)(C)CC[C@]6(CO)[C@@H](O)C[C@]45C)C3(C)C)O[C@@H]2CO[C@@H]2O[C@H](CO)[C@@H](O)[C@H](O)[C@H]2O)[C@H](O)[C@H](O)[C@H]1O (stereo not given in full) [BUPLEUROSIDE VII]	3.2	4.3	2.2	-0.6	2.5
CO[C@@H]1C=C2C3CC(C)(C)CC[C@]3(CO)[C@@H](O)C[C@@]2(C)[C@]2(C)CCC3[C@](C)(CCC(O[C@@H]4O[C@H](CO[C@@H]5O[C@H](CO)[C@@H](O)[C@H](O)[C@H]5O)[C@H](O[C@@H]5O[C@@H](C)[C@H](O)[C@@H](O)[C@H]5O)[C@H](O)[C@H]4O)[C@@]3(C)CO)C12 (stereo not given in full)	4.8	3.5	2.9	1.5	1.2
C[C@H]1O[C@@H](OC2CC[C@@]3(C)C(CC[C@]4(C)C3C=CC3=C5CC(C)(C)CC[C@]5(CO)[C@@H](O)C[C@]34C)[C@]2(C)CO)[C@H](O)[C@@H](O[C@@H]2O[C@H](CO)[C@@H](O)[C@H](O)[C@H]2O)[C@H]1O (stereo not given in full)	-5.1	4.3	8.7	0.1	-1.4
C[C@@H]1O[C@@H](O[C@@H]2[C@H](O)[C@@H](O)[C@H](O[C@H]3CC[C@@]4(C)C(CC[C@]5(C)C4C=C[C@]46OC[C@@]7(CCC(C)(C)CC74)[C@@H](O)C[C@]65C)C3(C)C)O[C@@H]2CO[C@@H]2O[C@H](CO)[C@@H](O)[C@H](O)[C@H]2O)[C@H](O)[C@H](O)[C@H]1O (stereo not given in full) [SAIKOSAPONIN C]	-1	-1.9	-1	-1.5	-0.7
C[C@@H]1O[C@@H](O[C@@H]2[C@H](O)[C@@H](O)[C@H](OC3CC[C@@]4(C)C(CC[C@]5(C)[C@@H]4CC=C4C6CC(C)(C)CC[C@]6(CO)[C@@H](O)C[C@]45C)C3(C)C)O[C@@H]2CO[C@@H]2O[C@H](CO)[C@@H](O)[C@H](O)[C@H]2O)[C@H](O)[C@H](O)[C@H]1O (stereo not given in full)	-0.7	-2.9	-2.9	3.1	0.2
C[C@H]1O[C@@H](OC2CC[C@@]3(C)C(CC[C@]4(C)C3C=CC3=C5CC(C)(C)CC[C@]5(CO)[C@H](O)C[C@]34C)[C@]2(C)CO)[C@H](O)[C@@H](O[C@@H]2O[C@H](CO)[C@@H](O)[C@H](O)[C@H]2O)[C@H]1O (stereo not given in full)	8.4	5.3	5.5	2.7	6.1
C[C@H]1O[C@@H](O[C@H]2CC[C@@]3(C)C(CC[C@]4(C)C3C=C[C@]35OC[C@@]6(CCC(C)(C)CC63)[C@@H](O)C[C@]54C)[C@]2(C)CO)[C@H](O)[C@@H](O[C@@H]2O[C@H](CO)[C@@H](O)[C@H](O)[C@H]2O[C@@H]2O[C@H](CO)[C@@H](O)[C@H](O)[C@H]2O)[C@H]1O (stereo not given in full) [BUPLEUROSIDE I]	-12.2	-7.8	-7.8	-5.4	-6.5
CO[C@@H]1C=C2C3CC(C)(C)CC[C@]3(CO)[C@H](O)C[C@@]2(C)[C@]2(C)CCC3[C@](C)(CCC(O[C@@H]4O[C@H](C)[C@H](O)[C@H](O[C@@H]5O[C@H](CO)[C@@H](O)[C@H](O)[C@H]5O)[C@H]4O)[C@@]3(C)CO)C12 (stereo not given in full)	-9.9	-6.9	-8.3	3.6	-4
C[C@@H]1O[C@@H](O[C@H]2[C@@H](O)[C@@H](CO[C@@H]3O[C@H](CO)[C@@H](O)[C@H](O)[C@H]3O)O[C@@H](OC3CC[C@@]4(C)C(CC[C@]5(C)C4C=CC4=C6CC(C)(C)CC[C@]6(CO)[C@H](O)C[C@]45C)[C@]3(C)CO)[C@@H]2O)[C@H](O)[C@H](O)[C@H]1O (stereo not given in full) [BUPLEUROSIDE X]	2.7	4.6	3.4	2.9	3.9
C[C@@H]1O[C@@H](O[C@@H]2[C@H](O)[C@@H](O)[C@H](OC3CC[C@@]4(C)C(CC[C@]5(C)[C@@H]4[C@H](O)C=C4C6CC(C)(C)CC[C@]6(CO)[C@@H](O)C[C@]45C)C3(C)C)O[C@@H]2CO[C@@H]2O[C@H](CO)[C@@H](O)[C@H](O)[C@H]2O)[C@H](O)[C@H](O)[C@H]1O (stereo not given in full)	-6.5	-3.4	-3.2	-2.3	-5.1
C[C@H]1O[C@@H](O[C@H]2CC[C@@]3(C)C(CC[C@]4(C)C3C=C[C@]35OC[C@@]6(CCC(C)(C)CC63)[C@H](O)C[C@]54C)[C@]2(C)CO)[C@H](O)[C@@H](O[C@@H]2O[C@H](CO)[C@@H](O)[C@H](O)[C@H]2O)[C@H]1O (stereo not given in full)	-5.3	-4.2	-4.3	3.9	2.3
CC1(C)CC[C@@]2(CO)C(C1)C1=CC(=O)C3[C@@]4(C)CC[C@H](O)[C@@](C)(CO)C4CC[C@@]3(C)[C@]1(C)C[C@@H]2O (stereo not given in full)	4.9	0	0.4	0.6	0.6
C[C@H]1O[C@@H](O[C@H]2CC[C@@]3(C)C(CC[C@]4(C)C3C=C[C@]35OC[C@@]6(CCC(C)(C)CC63)[C@@H](O)C[C@]54C)[C@]2(C)CO)[C@H](O)[C@@H](O[C@@H]2O[C@H](CO)[C@@H](O)[C@H](O)[C@H]2O)[C@H]1O (stereo not given in full)	-14.8	-11.6	-12.7	-3.6	-7.1
CO[C@@H]1C=C2C3CC(C)(C)CC[C@]3(CO)[C@@H](O)C[C@@]2(C)[C@]2(C)CCC3[C@](C)(CCC(O[C@@H]4O[C@H](C)[C@H](O)[C@H](O[C@@H]5O[C@H](CO)[C@@H](O)[C@H](O)[C@H]5O)[C@H]4O)[C@@]3(C)CO)C12 (stereo not given in full)	72.1	56.4	70.4	8.7	13.9
CC1(C)CC[C@]2(C(=O)O)CC[C@]3(C)C(=CCC4[C@@]5(C)CC[C@H](O[C@@H]6O[C@H](CO)[C@H](O)[C@H](O[C@@H]7OC[C@@H](O)[C@@H](O)[C@@H]7O[C@@H]7O[C@H](CO)[C@@H](O)[C@H](O)[C@H]7O)[C@H]6O)C(C)(C)C5CC[C@]43C)C2C1 (stereo not given in full) [BUPLEUROSIDE VII1]	-1.4	-0.9	-1.4	1.5	0.1
C[C@@H]1O[C@@H](O[C@@H]2[C@H](O)[C@@H](O)[C@H](O[C@H]3CC[C@@]4(C)C(CC[C@]5(C)C4CC=C4C6CC(C)(C)CC[C@]6(CO)CC[C@]45C)C3(C)C)O[C@@H]2CO[C@@H]2O[C@H](CO)[C@@H](O)[C@H](O)[C@H]2O)[C@H](O)[C@H](O)[C@H]1O (stereo not given in full) [BUPLEUROSIDE XI]	-0.3	-1	0.3	-0.4	1.6
C[C@H]1O[C@@H](OC2CC[C@@]3(C)C(CC[C@]4(C)C3C=C[C@]35OC[C@@]6(CCC(C)(C)CC63)[C@@H](O)C[C@]54C)C2(C)C)[C@H](O)[C@@H](O[C@@H]2O[C@H](CO)[C@@H](O)[C@H](O)[C@H]2O)[C@H]1O (stereo not given in full)	-30.6	-26.9	-29.2	-12	-17.1
C[C@@H]1O[C@@H](O[C@H]2[C@@H](O)[C@@H](CO[C@@H]3O[C@H](CO)[C@@H](O)[C@H](O)[C@H]3O)O[C@@H](OC3CC[C@@]4(C)C(CC[C@]5(C)C4C=CC4=C6C[C@@](C)(CO)CC[C@]6(CO)[C@H](O)C[C@]45C)[C@]3(C)CO)[C@@H]2O)[C@H](O)[C@H](O)[C@H]1O (stereo not given in full) [BUPLEUROSIDE XII]	0.8	-0.8	2	0.1	0.3
